How the values were obtained:
[1] = molecular target: T1, Mycobacterium tuberculosis protein tyrosine phosphatase B (MptpB) (Mycobacterium tuberculosis, UniProt I6WXK4); assay: MptpB inhibition assay (RediPlate 96 EnzChek Tyrosine Phosphatase Assay kit, DiFMUP hydrolysis); type: biochemical; conditions: for IC50: fluorogenic substrate DiFMUP, average of three independent experiments, read-out: IC50 against MptpB; for inhibitory activity against MptpB (in words): bioassay summary in conclusions
T1 construct: The full-length PTPB gene was amplified from genomic DNA of the Mtb H37Rv strain; His6 (N); made in house; host or cells: Escherichia coli BL21(DH3) (so in the source)
T1 sequence (I6WXK4 whole entry, looked up): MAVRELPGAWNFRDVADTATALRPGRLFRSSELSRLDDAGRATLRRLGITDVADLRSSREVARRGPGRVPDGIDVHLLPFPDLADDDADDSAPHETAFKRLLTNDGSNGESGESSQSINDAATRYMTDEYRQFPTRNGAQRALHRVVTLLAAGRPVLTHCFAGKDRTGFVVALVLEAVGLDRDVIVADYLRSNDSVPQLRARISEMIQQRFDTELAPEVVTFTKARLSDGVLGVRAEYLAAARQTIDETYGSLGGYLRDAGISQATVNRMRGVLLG

Compound	IC50 [1] [µM]	inhibitory activity against MptpB (in words) [1]	melting point [°C]
O=C1C2=C3C(=CC(=O)c4c(O)cccc43)OC2(O)Cc2cc(O)cc(O)c21 (racemic) [Compound 1, (±)-asperlone A]	4.24 ± 0.41	strong inhibitory activity	–
O=C1C2=C3C(=CC(=O)c4c(O)cc(O)cc43)OC2(O)Cc2cc(O)cc(O)c21 (racemic) [Compound 2, (±)-asperlone B]	4.32 ± 0.6	strong inhibitory activity	–
Cc1c(O)c(O)cc(O)c1C(=O)O[C@]1(C)C(=O)C=C2C=C(C=CC(=O)O)OC=C2C1=O [Compound 3, 6″-hydroxy-(R)-mitorubrinic acid]	> 50	–	> 300
Cc1cc(O)cc(O)c1C(=O)O[C@]1(C)C(=O)C=C2C=C(/C=C/C(=O)O)OC=C2C1=O [Compound 5, (−)-mitorubrinic acid]	> 50	–	–
C/C=C/C1=CC2=CC(=O)[C@@](C)(OC(=O)c3c(C)cc(O)cc3O)C(=O)C2=CO1 [Compound 6, (−)-mitorubrin]	3.99 ± 0.34	strong inhibitory activity	–
[Na+].[Na+].[Na+].[O]=[V]([O-])([O-])[O-] [Positive Control, sodium orthovanadate, reference compound]	0.05	–	–
